Test results from US20100286038A1, “FORMULATION CONTAINING CYCLIN-DEPENDENT KINASE INHIBITING COMPOUND AND METHOD OF TREATING TUMORS USING THE SAME” (priority 2007, published 2010).
Where two headings read alike, the source gives them in different places.

Procedure: The contents of the IV bag were infused over a two hour period. […] Each patient was dosed on a 28 day cycle, comprising an infusion once a week for the first three weeks of the cycle on days 1, 8, and 15 of each cycle, with no dose administered in the week following the third dose.
[1] = Table VII, 2 hour IV infusion, 50 mg/m^2, N 10
[2] = Table VII, 2 hour IV infusion, 58 mg/m^2, N 3
[3] = Table VIII cumulative data, Day 1, 2-hour IV infusion, 0.66 mg/m^2, N 1
[4] = Table VIII cumulative data, Day 1, 2-hour IV infusion, 1.32 mg/m^2, N 1
[5] = Table VIII cumulative data, Day 1, 2-hour IV infusion, 1.85 mg/m^2, N 5
[6] = Table VIII cumulative data, Day 1, 2-hour IV infusion, 1.85 mg/m^2, N = 4
[7] = Table VIII cumulative data, Day 1, 2-hour IV infusion, 2.59 mg/m^2, N 3
[8] = Table VIII cumulative data, Day 1, 2-hour IV infusion, 2.59 mg/m^2, N = 2
[9] = Table VIII cumulative data, Day 1, 2-hour IV infusion, 3.63 mg/m^2, N 7
[10] = Table VIII cumulative data, Day 1, 2-hour IV infusion, 3.63 mg/m^2, N = 6
[11] = Table VIII cumulative data, Day 1, 2-hour IV infusion, 3.7 mg/m^2, N 1
[12] = Table VIII cumulative data, Day 1, 2-hour IV infusion, 5.08 mg/m^2, N 3
[13] = Table VIII cumulative data, Day 1, 2-hour IV infusion, 7.11 mg/m^2, N 1
[14] = Table VIII cumulative data, Day 1, 2-hour IV infusion, 7.4 mg/m^2, N 1
[15] = Table VIII cumulative data, Day 1, 2-hour IV infusion, 14.8 mg/m^2, N 1
[16] = Table VIII cumulative data, Day 1, 2-hour IV infusion, 29.6 mg/m^2, N 6
[17] = Table VIII cumulative data, Day 1, 2-hour IV infusion, 29.6 mg/m^2, N = 5
[18] = Table VIII cumulative data, Day 1, 2-hour IV infusion, 41.4 mg/m^2, N 6
[19] = Table VIII cumulative data, Day 1, 2-hour IV infusion, 50 mg/m^2, N 10
[20] = Table VIII cumulative data, Day 1, 2-hour IV infusion, 58 mg/m^2, N 3
[21] = Table VIII cumulative data, Day 1, 2-hour IV infusion, […]^2, N 1

## CCc1cnn2c(NCc3ccc[n+]([O-])c3)cc(N3CCCC[C@H]3CCO)nc12 [Formula II]
[1]
  AUC(I) Mean: 4090 ng·h/mL
  CL Mean: 16.3 L/hr/m^2
  t½ Mean: 2.90 h
[2]
  AUC(I) Mean: 3300 ng·h/mL
  CL Mean: 19.7 L/hr/m^2
  t½ Mean: 3.15 h
[3]
  AUC(I) Mean: 32.1 ng·h/mL
  CL Mean: 20.6 L/hr/m^2
  Cmax Mean: 18.6 ng/mL
  Tmax Median: 2 h
  t½ Mean: 1.48 h
[4]
  Cmax Mean: 63.8 ng/mL
  Tmax Median: 2 h
[5]
  Cmax Mean: 91.0 ng/mL
  Tmax Median: 2 h
[6]
  AUC(I) Mean: 201 ng·h/mL
  CL Mean: 10.2 L/hr/m^2
  t½ Mean: 2.29 h
[7]
  Cmax Mean: 124 ng/mL
  Tmax Median: 1 h
[8]
  AUC(I) Mean: 213 ng·h/mL
  CL Mean: 12.9 L/hr/m^2
  t½ Mean: 3.02 h
[9]
  Cmax Mean: 195 ng/mL
  Tmax Median: 1 h
[10]
  AUC(I) Mean: 446 ng·h/mL
  CL Mean: 11.3 L/hr/m^2
  t½ Mean: 2.63 h
[11]
  AUC(I) Mean: 336 ng·h/mL
  CL Mean: 11.0 L/hr/m^2
  Cmax Mean: 136 ng/mL
  Tmax Median: 2 h
  t½ Mean: 2.75 h
[12]
  AUC(I) Mean: 327 ng·h/mL
  CL Mean: 15.9 L/hr/m^2
  Cmax Mean: 173 ng/mL
  Tmax Median: 2 h
  t½ Mean: 3.19 h
[13]
  AUC(I) Mean: 588 ng·h/mL
  CL Mean: 12.1 L/hr/m^2
  Cmax Mean: 347 ng/mL
  Tmax Median: 1 h
  t½ Mean: 3.16 h
[14]
  AUC(I) Mean: 972 ng·h/mL
  CL Mean: 7.62 L/hr/m^2
  Cmax Mean: 353 ng/mL
  Tmax Median: 2 h
  t½ Mean: 2.86 h
[15]
  AUC(I) Mean: 1050 ng·h/mL
  CL Mean: 14.1 L/hr/m^2
  Cmax Mean: 396 ng/mL
  Tmax Median: 2 h
  t½ Mean: 2.78 h
[16]
  Cmax Mean: 890 ng/mL
  Tmax Median: 1 h
[17]
  AUC(I) Mean: 2430 ng·h/mL
  CL Mean: 14.0 L/hr/m^2
  t½ Mean: 2.98 h
[18]
  AUC(I) Mean: 2890 ng·h/mL
  CL Mean: 26.8 L/hr/m^2
  Cmax Mean: 1300 ng/mL
  Tmax Median: 2 h
  t½ Mean: 2.84 h
[19]
  AUC(I) Mean: 4090 ng·h/mL
  CL Mean: 16.3 L/hr/m^2
  Cmax Mean: 1820 ng/mL
  Tmax Median: 1.5 h
  t½ Mean: 2.90 h
[20]
  AUC(I) Mean: 3300 ng·h/mL
  CL Mean: 19.7 L/hr/m^2
  Cmax Mean: 1460 ng/mL
  Tmax Median: 1 h
  t½ Mean: 3.15 h
[21]
  CL Mean: 13.1 L/hr/m^2
  Tmax Median: 1 h
  t½ Mean: 2.01 h
Dosages of from […]^2 to 41.4 mg/m^2
  clearance versus dose: clearance is dosage independent
Dosages of from […]^2 to 41.4 mg/m^2, day 1 and day 15
  exposure (AUC) versus dose: dose-proportional increases in exposure
Two hour infusion, 3.7 mg/M^2
  AUC: about 336 ng hr/mL
  Cmax: about 136 ng/ml
  t1/2: about 2.75 hours
Two hour infusion, 7.4 mg/M^2
  Cmax: about 353 ng/ml
  t1/2: about 2.86 hours
Two hour infusion, 14.8 mg/M^2
  Cmax: about 396 ng/ml
  t1/2: about 2.78 hours
Two hour infusion, 41.4 mg/M^2
  t1/2: about 2.8 hours
Two hour infusion, 50 mg/M^2
  Cmax: about 1820 ng/ml
  t1/2: about 2.9 hours
Two hour infusion, 58 mg/M^2
  Cmax: about 1460 ng/ml
  t1/2: about 3.2 hours
